Data taken from US20190084939A1, “ANALOGS OF FEXARAMINE AND METHODS OF MAKING AND USING” (Salk Institute for Biological Studies, priority 2014, published 2019).
“Also recorded” adds a separate entry of the source.

Tests used:
[1] = test system: pancreatic islets gene expression; test: RNA-Seq of pancreatic islets of treated ob/ob mice; assay type: in vivo; settings: fexaramine 100 mg/kg 5 weeks, analogs 50 mg/kg 2 weeks
Method: Pancreatic islets were isolated from ob/ob mice after daily treatment by oral gavage with fexaramine (100 mg/kg for 5 weeks), FEX-D (50 mg/kg for 2 weeks) or SALK110 (NSSK00110, 50 mg/kg for 2 weeks). Changes in gene expression were determined by RNA-Seq.

chow-fed mice = test: chronic PO fexaramine in normal chow-fed mice; assay type: in vivo
Method: FIGS. 3A-3D are line graphs and a bar graph showing the effects of fexaramine administration in normal chow-fed mice. The mice were treated with vehicle or fexaramine (100 mg/kg) via PO for 5 weeks. Data represent the mean±STD. Statistical analysis as performed with the Student's t test (*p<0.05, **p<0.01).
To investigate the physiological effects of intestinal FXR activation by fexaramine, mice were subjected to chronic fexaramine (100 mg/kg Fex) PO treatment for 5 weeks.

[2] = test system: FXR target gene expression; test: FXR target gene expression (qPCR) in tissues after PO or IP fexaramine; assay type: in vivo, C57BL/6J mice; settings: for FXR target gene (SHP) expression in liver and kidney, IP versus PO / FXR target genes (IBABP, OSTα, FGF15) in the intestine / FXR target genes in liver or kidney: 100 mg/kg; for FXR target genes (IBABP, OSTα, FGF15) in the intestine / FXR target genes in liver or kidney: PO
Method: FIGS. 1A-1C are a comparative expression chart and two bar charts, respectively, illustrating increased levels of FXR target gene expression in the intestine relative to expression in the liver and kidney. 8 week-old C57BL/6J mice were treated with vehicle or fexaramine (100 mg/kg) via oral (PO) or intraperitoneal (IP) injection for three days (FIGS. 1A-1B) or five days (FIG. 1C).
FXR target gene expression was analyzed by qPCR. Gene expression was normalized against a vehicle-treated group.
Upon exploration of the in vivo effects of fexaramine (Fex) administration, it was discovered that due to ineffectual absorption, oral (PO) and intraperitoneal (IP) drug delivery produced very different effects (FIGS. 1D and 1E).

Human FXR full length = target: T1, Human FXR full length (Homo sapiens, UniProt Q96RI1); test: FXR activity screen, luciferase reporter in transfected CV-1 cells; assay type: cell-based; settings: fexaramine control in the retest; read-out: Fex EC50
T1 construct: Human FXR full length and RXR full length was obtained from Ronald Evans' laboratory; expressed in transfected cells; host or cells: CV-1 cells
T1 sequence (Q96RI1 1-476 isoform Q96RI1-1): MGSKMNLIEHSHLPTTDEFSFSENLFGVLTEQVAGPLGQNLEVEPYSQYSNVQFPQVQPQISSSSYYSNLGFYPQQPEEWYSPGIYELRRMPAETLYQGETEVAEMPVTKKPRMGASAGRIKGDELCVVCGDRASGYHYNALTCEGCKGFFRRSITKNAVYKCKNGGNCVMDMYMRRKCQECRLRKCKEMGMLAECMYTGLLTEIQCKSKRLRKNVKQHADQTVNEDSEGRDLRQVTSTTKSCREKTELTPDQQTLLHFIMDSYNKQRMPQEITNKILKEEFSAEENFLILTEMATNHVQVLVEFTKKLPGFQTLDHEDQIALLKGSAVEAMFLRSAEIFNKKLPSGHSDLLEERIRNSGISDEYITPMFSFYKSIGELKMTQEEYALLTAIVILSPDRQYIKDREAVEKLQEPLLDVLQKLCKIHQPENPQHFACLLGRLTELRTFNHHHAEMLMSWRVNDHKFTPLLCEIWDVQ
T1 sequence (P19793 1-462 partner): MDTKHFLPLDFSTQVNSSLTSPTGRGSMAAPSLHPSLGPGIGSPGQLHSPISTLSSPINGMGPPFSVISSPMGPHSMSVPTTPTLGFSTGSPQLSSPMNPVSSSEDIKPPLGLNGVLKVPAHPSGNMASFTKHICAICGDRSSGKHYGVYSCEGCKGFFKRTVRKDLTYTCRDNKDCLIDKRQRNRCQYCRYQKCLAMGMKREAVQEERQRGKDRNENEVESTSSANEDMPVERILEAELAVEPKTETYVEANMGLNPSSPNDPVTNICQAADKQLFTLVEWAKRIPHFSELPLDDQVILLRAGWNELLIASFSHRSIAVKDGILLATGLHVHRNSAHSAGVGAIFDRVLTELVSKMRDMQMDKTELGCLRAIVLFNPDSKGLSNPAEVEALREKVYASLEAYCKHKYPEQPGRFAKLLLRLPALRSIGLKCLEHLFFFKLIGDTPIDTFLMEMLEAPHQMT
Procedure, shortened: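 CV-1 cells in charcoal-stripped serum, transfected with full-length human FXR, RXR, FXRE-luciferase reporter and β-Gal; 48 h expression, then 24 h compound (0.001–100 μM, quadruplicate, 1:1000 DMSO dilution). Luciferase normalized to β-galactosidase; fold induction vs untreated, efficacy relative to fexaramine, EC50 by non-linear regression.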

SMILES: COC(=O)/C=C/c1cccc(N(Cc2ccc(-c3ccc(N(C)C)cc3)cc2)C(=O)C2CCCCC2)c1 [Fexaramine, fexaramine]
- gene induction in islets (intracellular signaling, insulin secretion, exocytosis) [1]: induce a common set of genes
- weight gain, basal metabolic activity and glucose tolerance (chow-fed mice; chow-fed mice, 100 mg/kg PO 5 weeks): indistinguishable from vehicle-treated mice
- glucose homeostasis (chow-fed mice; normal chow-fed mice, range of doses): no effects observed
- FXR target gene (SHP) expression in liver and kidney, IP versus PO [2]: increases
- FXR target gene (SHP) expression in liver and kidney, IP versus PO ([2]; listed as Fex): only seen in liver and kidney after IP treatment
- FXR target genes (IBABP, OSTα, FGF15) in the intestine [2]: substantially enhances
- FXR target genes in liver or kidney [2]: intestinally-restricted; also recorded: not in the liver or kidney
- FXR target genes (IBABP, OSTα, FGF15) in the intestine ([2]; listed as Fex): induced multiple FXR target genes in the intestine
- FXR target genes in liver or kidney ([2]; listed as Fex): failed to affect
- induction of FXR target gene SHP throughout the intestine ([2]; acute PO and IP, 100 mg/kg for five days): robust induction
- EC50 (Human FXR full length): 63 nM
